Reference: ChEMBL document CHEMBL1141544, “Synthesis of N-pyrimidinyl-2-phenoxyacetamides as adenosine A2A receptor antagonists” (Bioorg Med Chem Lett, 2008)
Values after ≈ are worked out from the molar mass of the structure shown.

Key:
[1] = species on record: Homo sapiens; assay: Selectivity of Ki for human adenosine A2A receptor over Ki for human adenosine A1 receptor
[2] = target: T1, Adenosine receptor A1 (Homo sapiens, UniProt P30542); assay: Displacement of [3H]DPCPX from human adenosine A1 receptor expressed in HEK293 cells; format: cell-based
T1 sequence (P30542 whole entry): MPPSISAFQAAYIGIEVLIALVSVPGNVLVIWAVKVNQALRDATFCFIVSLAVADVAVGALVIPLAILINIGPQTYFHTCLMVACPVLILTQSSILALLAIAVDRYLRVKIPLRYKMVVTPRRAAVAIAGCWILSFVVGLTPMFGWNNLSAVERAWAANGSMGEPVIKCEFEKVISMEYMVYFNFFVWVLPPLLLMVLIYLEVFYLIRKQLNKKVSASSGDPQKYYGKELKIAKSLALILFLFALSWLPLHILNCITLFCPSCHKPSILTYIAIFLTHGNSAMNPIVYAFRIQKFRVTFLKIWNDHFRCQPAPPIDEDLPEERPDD

[3] = target: T2, Adenosine receptor A2a (Homo sapiens, UniProt P29274); assay: Displacement of [3H]ZM-241385 from human adenosine A2A receptor expressed in HEK293 cells; format: cell-based
T2 sequence (P29274 whole entry): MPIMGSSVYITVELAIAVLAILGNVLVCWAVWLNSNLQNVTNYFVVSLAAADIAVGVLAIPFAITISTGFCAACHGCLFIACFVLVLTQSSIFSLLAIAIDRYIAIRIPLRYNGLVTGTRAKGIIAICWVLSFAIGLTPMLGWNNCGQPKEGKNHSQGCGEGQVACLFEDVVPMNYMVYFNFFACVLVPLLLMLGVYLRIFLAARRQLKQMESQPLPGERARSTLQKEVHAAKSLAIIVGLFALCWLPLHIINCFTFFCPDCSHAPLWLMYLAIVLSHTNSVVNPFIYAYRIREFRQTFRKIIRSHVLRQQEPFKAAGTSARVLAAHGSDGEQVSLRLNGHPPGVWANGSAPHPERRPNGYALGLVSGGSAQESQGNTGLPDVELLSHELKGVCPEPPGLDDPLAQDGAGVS

[4] = target: T2, Adenosine receptor A2a; assay: Binding affinity at adenosine A2A receptor
[5] = target: Cytochrome P450 2D6 (Homo sapiens, UniProt P10635); assay: Inhibition of CYP2D6; format: ADME
Chain of Cytochrome P450 2D6 (P10635 whole entry): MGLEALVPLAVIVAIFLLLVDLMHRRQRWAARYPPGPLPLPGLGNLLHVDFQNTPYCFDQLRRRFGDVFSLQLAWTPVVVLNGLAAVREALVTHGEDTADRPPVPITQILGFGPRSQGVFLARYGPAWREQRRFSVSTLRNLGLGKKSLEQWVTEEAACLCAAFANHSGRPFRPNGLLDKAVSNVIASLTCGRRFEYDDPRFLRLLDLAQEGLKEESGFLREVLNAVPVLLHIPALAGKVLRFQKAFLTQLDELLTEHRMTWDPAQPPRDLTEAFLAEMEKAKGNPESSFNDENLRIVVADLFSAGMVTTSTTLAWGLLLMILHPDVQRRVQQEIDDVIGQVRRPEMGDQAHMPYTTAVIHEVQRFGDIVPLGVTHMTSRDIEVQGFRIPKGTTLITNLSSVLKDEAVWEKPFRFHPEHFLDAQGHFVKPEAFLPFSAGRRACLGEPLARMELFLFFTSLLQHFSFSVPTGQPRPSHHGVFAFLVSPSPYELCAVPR

[6] = target: Cytochrome P450 3A4 (Homo sapiens, UniProt P08684); assay: Inhibition of CYP3A4; format: ADME
Chain of Cytochrome P450 3A4 (P08684 whole entry): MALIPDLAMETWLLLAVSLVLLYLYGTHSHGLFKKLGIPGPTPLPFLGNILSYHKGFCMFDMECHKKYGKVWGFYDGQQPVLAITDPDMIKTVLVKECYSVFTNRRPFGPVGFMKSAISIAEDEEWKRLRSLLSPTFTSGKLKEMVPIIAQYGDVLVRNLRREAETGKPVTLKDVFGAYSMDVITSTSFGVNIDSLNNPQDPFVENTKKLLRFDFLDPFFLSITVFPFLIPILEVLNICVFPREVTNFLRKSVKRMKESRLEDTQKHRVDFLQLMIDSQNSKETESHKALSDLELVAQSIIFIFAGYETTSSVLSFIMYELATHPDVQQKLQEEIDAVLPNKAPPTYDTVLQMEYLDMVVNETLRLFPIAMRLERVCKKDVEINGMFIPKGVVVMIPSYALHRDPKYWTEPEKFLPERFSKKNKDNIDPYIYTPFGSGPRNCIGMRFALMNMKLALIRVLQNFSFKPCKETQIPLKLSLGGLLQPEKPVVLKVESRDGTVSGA

[7] = Solubility at pH 5; format: physicochemical; conditions: buffer
[8] = Plasma clearance in rat; format: ADME, organism-based
[9] = tested on: Rattus norvegicus; assay: Inhibition of haloperidol-induced catalepsy in orally dosed rat; format: functional; conditions: po, read-out: MED
[10] = Oral bioavailability in rat; format: ADME, organism-based; conditions: in vivo
[11] = Volume of distribution in rat; format: ADME, organism-based; conditions: in vivo
[12] = Half life in rat; format: ADME, organism-based; conditions: in vivo
[13] = target: Adenosine receptor A2a (Rattus norvegicus, UniProt P30543); assay: Inhibition of rat adenosine A2A receptor
Chain of Adenosine receptor A2a (Rattus norvegicus, UniProt P30543) (P30543 whole entry): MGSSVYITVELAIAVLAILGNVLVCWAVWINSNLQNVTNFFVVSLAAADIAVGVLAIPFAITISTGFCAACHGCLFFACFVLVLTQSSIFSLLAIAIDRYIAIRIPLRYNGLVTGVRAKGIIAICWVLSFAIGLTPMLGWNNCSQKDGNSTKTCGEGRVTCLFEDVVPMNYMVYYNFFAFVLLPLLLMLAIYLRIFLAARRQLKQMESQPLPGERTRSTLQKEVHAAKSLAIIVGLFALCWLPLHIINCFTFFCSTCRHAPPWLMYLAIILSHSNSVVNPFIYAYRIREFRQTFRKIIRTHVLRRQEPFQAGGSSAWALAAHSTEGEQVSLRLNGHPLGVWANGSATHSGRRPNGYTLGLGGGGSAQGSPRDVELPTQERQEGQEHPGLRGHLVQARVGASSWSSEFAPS

[14] = Drug level in rat brain after 4 hrs; format: ADME, tissue-based; conditions: read-out: Drug uptake
[15] = target: T1, Adenosine receptor A1; assay: Binding affinity at adenosine A1 receptor
[16] = target: Voltage-gated inwardly rectifying potassium channel KCNH2 (Homo sapiens, UniProt Q12809); assay: Binding affinity at human ERG
Chain of Voltage-gated inwardly rectifying potassium channel KCNH2 (Q12809 whole entry): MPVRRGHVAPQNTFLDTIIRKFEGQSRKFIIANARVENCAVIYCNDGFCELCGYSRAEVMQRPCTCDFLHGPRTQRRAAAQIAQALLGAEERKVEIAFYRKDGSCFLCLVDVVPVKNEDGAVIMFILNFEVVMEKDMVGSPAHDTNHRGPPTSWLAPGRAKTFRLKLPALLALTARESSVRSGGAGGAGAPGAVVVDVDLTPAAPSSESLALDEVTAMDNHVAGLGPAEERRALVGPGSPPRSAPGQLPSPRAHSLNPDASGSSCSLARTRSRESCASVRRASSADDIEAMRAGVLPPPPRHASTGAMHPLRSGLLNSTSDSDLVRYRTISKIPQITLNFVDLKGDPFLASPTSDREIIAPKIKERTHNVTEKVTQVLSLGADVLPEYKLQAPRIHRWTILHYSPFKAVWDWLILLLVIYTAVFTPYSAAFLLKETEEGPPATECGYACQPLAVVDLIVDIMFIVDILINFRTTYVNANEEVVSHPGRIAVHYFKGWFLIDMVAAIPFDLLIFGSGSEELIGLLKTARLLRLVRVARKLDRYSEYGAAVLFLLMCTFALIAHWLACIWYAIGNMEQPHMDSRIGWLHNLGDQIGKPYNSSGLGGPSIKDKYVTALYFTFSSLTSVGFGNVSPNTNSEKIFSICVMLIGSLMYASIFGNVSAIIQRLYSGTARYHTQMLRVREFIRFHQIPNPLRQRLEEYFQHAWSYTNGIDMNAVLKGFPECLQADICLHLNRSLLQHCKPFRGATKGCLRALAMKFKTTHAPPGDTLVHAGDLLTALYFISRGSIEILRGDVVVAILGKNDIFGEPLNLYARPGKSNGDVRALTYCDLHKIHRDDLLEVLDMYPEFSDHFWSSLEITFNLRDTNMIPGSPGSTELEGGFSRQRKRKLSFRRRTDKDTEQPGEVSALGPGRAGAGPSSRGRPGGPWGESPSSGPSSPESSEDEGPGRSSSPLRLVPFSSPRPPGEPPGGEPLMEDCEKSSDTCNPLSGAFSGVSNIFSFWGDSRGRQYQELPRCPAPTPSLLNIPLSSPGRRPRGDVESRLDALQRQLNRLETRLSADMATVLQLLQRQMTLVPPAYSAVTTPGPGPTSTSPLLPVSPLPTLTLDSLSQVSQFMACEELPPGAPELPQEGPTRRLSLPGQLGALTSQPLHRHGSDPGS

Row | Structure (SMILES) | Ki [2] | Ki [3] | other results
1 | Cc1cc(C)n(-c2cc(NC(=O)COc3cccc(CN4CCOCC4)c3)nc(-c3ccc(C)o3)n2)n1 | 0.6 µM | 0.0012 µM | Ratio Ki [1]: 500
2 | Cc1ccc(-c2nc(NC(=O)COc3ccccc3F)cc(-c3nccs3)n2)o1 | 0.65 µM | 0.0075 µM | Ratio Ki [1]: 87
3 | Cc1ccc(OCC(=O)Nc2cc(-c3nccs3)nc(-c3ccc(C)o3)n2)cc1 | 2.1 µM | 0.036 µM | 
4 | Cc1cc(C)n(-c2cc(NC(=O)COc3cc(F)cc(CN(C)C)c3)nc(-c3ccc(C)o3)n2)n1 | 0.14 µM | 0.0005 µM | 
5 | Cc1ccc(-c2nc(NC(=O)COc3ccccc3)cc(-c3nccs3)n2)o1 | 1.1 µM | 0.0074 µM | 
6 | Cc1cc(C)nc(OCC(=O)Nc2cc(-n3nc(C)cc3C)nc(-c3ccc(C)o3)n2)n1 | 0.095 µM | 0.0037 µM | 
7 | COc1cc(CN(C)C)ccc1OCC(=O)Nc1cc(-n2nc(C)cc2C)nc(-c2ccc(C)o2)n1 | 0.1 µM | 0.0002 µM | 
8 | N#Cc1cccc(OCC(=O)Nc2cc(-c3nccs3)nc(-c3ccccn3)n2)c1 | 0.087 µM | 0.0018 µM | 
9 | COc1cc(OCC(=O)Nc2cc(-n3nc(C)cc3C)nc(-c3ccc(C)o3)n2)ccc1CN(C)C | 0.15 µM | 0.0003 µM | 
10 | Cc1cc(C)n(-c2cc(NC(=O)COc3cccc(C#N)c3)nc(-c3ccc(C)o3)n2)n1 | 25 µM | > 10 µM | 
11 | Cc1ccc(-c2nc(NC(=O)COc3cccc(F)c3)cc(-c3nccs3)n2)o1 | 2.2 µM | 0.011 µM | 
12 | CCN(C)Cc1cccc(OCC(=O)Nc2cc(-n3nc(C)cc3C)nc(-c3ccc(C)o3)n2)c1 | 0.068 µM | 0.0003 µM | Ratio Ki [1]: 100; Ki [4]: 0.0003 µM
13 | CC(=O)Nc1cc(-n2cccn2)nc(-c2ccco2)n1 |  |  | Ratio Ki [1]: 17; Ki [4]: 0.0006 µM
14 | Cc1cc(C)n(-c2cc(NC(=O)COc3cccc(CN)c3)nc(-c3ccc(C)o3)n2)n1 | 0.073 µM | 0.0007 µM | Ratio Ki [1]: 100; Ki [4]: 0.0007 µM
15 | Cc1cc(OCC(=O)Nc2cc(-n3nc(C)cc3C)nc(-c3ccc(C)o3)n2)cc(C)n1 | 0.74 µM | 0.0007 µM | IC50 [5]: 0.05 µM; IC50 [6]: 1.1 µM
16 | COc1cccc(CN(C)C)c1OCC(=O)Nc1cc(-n2nc(C)cc2C)nc(-c2ccc(C)o2)n1 | 1.4 µM | 0.0057 µM | 
17 | Cc1cc(C)n(-c2cc(NC(=O)COc3ccc(CN(C)C)cc3)nc(-c3ccc(C)o3)n2)n1 | 0.12 µM | 0.0003 µM | 

Row | Structure (SMILES) | Ki [2] | Ki [3] | other results
18 | Cc1cc(C)n(-c2cc(NC(=O)COc3cccc(F)c3)nc(-c3ccc(C)o3)n2)n1 | 9.7 µM | 0.0037 µM | Ratio Ki [1]: 2600; solubility [7]: 80 µg/mL (≈ 190 µM)
19 | Cc1cc(C)n(-c2cc(NC(=O)COc3cc(F)cc(CN4CCCC4)c3)nc(-c3ccc(C)o3)n2)n1 | 0.12 µM | 0.0005 µM | 
20 | Cc1cc(C)n(-c2cc(NC(=O)COc3cccc(CN(C)C)c3)nc(-c3ccc(C)o3)n2)n1 | 0.06 µM | 0.0004 µM | clearance [8]: 330 mL/min/kg; minimal effective dose [9]: 10 mg/kg; bioavailability [10]: 19%; IC50 [5]: > 6 µM; solubility [7]: 210 µg/mL (≈ 456 µM); Vd [11]: 20 L/kg; half-life [12]: 48 min; Ki [13]: 0.0094 µM; concentration at 4 h [14]: 360 ng/g; IC50 [6]: > 6 µM
21 | Cc1ccc(-c2nc(NC(=O)CCc3ccccc3F)cc(-c3nccs3)n2)o1 |  |  | Ki [15]: 0.41 µM; Ratio Ki [1]: 26; Ki [4]: 0.016 µM
22 | Cc1ccc(-c2nc(NC(=O)COc3ccc(F)cc3)cc(-c3nccs3)n2)o1 | 1.3 µM | > 10 µM | 
23 | Cc1ccc(OCC(=O)Nc2cc(-n3nc(C)cc3C)nc(-c3ccc(C)o3)n2)c(CN(C)C)c1 | 0.27 µM | 0.001 µM | 
24 | Cc1ccc(-c2nc(NC(=O)COc3cccc(C#N)c3)cc(-c3nccs3)n2)o1 | 4.3 µM | 0.0068 µM | 
25 | Cc1cc(C)n(-c2cc(NC(=O)COc3cccc(CCN(C)C)c3)nc(-c3ccc(C)o3)n2)n1 | 0.078 µM | 0.0005 µM | 
26 | O=C(COc1cccc(F)c1)Nc1cc(-c2nccs2)nc(-c2ccccn2)n1 | 0.18 µM | 0.0036 µM | 
27 | Cc1cc(C)n(-c2cc(NC(=O)COc3cccc(CCN4CCOCC4)c3)nc(-c3ccc(C)o3)n2)n1 | 0.54 µM | 0.0023 µM | 
28 | Cc1cc(C)n(-c2cc(NC(=O)COc3cc(F)cc(CN4CCOCC4)c3)nc(-c3ccc(C)o3)n2)n1 | 0.48 µM | 0.0014 µM | 
29 | Cc1cc(C)n(-c2cc(NC(=O)COc3ccccc3CN(C)C)nc(-c3ccc(C)o3)n2)n1 | 0.27 µM | 0.001 µM | 
30 | Cc1ccc(-c2nc(NC(=O)COc3cccc(Cl)c3)cc(-c3nccs3)n2)o1 | 1.5 µM | 0.014 µM | 
31 | COc1ccc(OCC(=O)Nc2cc(-n3nc(C)cc3C)nc(-c3ccc(C)o3)n2)c(CN(C)C)c1 | 0.2 µM | 0.0009 µM | IC50 [6]: 1.6 µM
32 | CCNCc1cccc(OCC(=O)Nc2cc(-n3nc(C)cc3C)nc(-c3ccc(C)o3)n2)c1 | 0.068 µM | 0.0003 µM | Ratio Ki [1]: 100; Ki [4]: 0.0003 µM
33 | Cc1cc(C)n(-c2cc(NC(=O)COc3ccccc3CCN3CCOCC3)nc(-c3ccc(C)o3)n2)n1 | 1.2 µM | 0.0012 µM | Ki [16]: 0.18 µM
